Experimental findings from patent US11020395B2, “Cycloalkyl substituted triazole compounds as agonists of the APJ receptor” (AMGEN INC., priority 2016, dated 2021) are described below.

human APJ receptor, sequence (P35414 whole entry): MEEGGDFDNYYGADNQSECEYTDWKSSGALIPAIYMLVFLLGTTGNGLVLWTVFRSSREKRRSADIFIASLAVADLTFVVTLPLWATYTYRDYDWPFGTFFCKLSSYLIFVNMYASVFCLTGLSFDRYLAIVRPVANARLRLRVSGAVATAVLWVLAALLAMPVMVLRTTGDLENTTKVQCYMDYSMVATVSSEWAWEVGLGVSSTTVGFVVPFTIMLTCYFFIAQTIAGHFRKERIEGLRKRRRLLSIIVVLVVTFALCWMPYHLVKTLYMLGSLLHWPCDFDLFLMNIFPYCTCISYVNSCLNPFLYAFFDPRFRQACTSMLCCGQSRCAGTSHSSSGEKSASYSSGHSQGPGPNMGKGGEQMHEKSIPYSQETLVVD

The target in the assay is human APJ receptor (Homo sapiens (Human), UniProt P35414). The experiment in a line: [35S]GTPγS binding assay on membranes from CHO cells stably expressing human APJ receptor. The settings on record: [35S]GTPγS SPA, read-out: Activity hAPJ SPA EC50 IP. In kind it is biochemical. An outline of the steps:
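Agonist-stimulated [35S]GTPγS binding measured on membranes of a stable human APJ CHO line, 90 min at room temperature, with GDP, MgCl2 and NaCl levels optimized beforehand. Means of independent runs fitted by non-linear regression to give EC50.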
For orientation: GTPγS resists hydrolysis and so accumulates on activated G proteins.
In general, EC50 refers to the concentration at which the effect is half-maximal. On to `COc1cccc(OC)c1-n1c(NS(=O)(=O)[C@@H](C)[C@H](C)c2ncc(Cl)cn2)nnc1C1(c2ccccn2)CC1` [Example 125.0], for which the EC50 was 0.4 µM.
The figure for `COc1cccc(OC)c1-n1c(NS(=O)(=O)[C@@H](C)[C@H](C)c2ncc(C)cn2)nnc1C1(c2ccccn2)CC1` [Example 126.0] is 4.2 µM.
The figure for `CO[C@H](c1ncc(Cl)cn1)[C@H](C)S(=O)(=O)Nc1nnc(C2CCC2)n1C(C)C` [Example 128.0] is 0.33 µM; for `COc1cccc(OC)c1-n1c(NS(=O)(=O)[C@@H](C)[C@H](OC)c2cnc(C)cn2)nnc1C1CCC1` [Example 138.0] it is 0.027 µM.
The figure for `COc1cccc(OC)c1-n1c(NS(=O)(=O)[C@@H](C)[C@H](C)c2cnc(C)cn2)nnc1C1CCC1` [Example 139.0] is 0.029 µM.
Turning to `COc1cccc(OC)c1-n1c(NS(=O)(=O)[C@@H](C)[C@@H](OC(C)C)c2cnc(C)cn2)nnc1C1CCC1` [Example 140.0], the concentration for a half-maximal effect (EC50) was found to be 0.031 µM.
The figure for `COc1cccc(OC)c1-n1c(NS(=O)(=O)[C@@H](C)[C@H](OC)c2ncc(C)cn2)nnc1C1CCC1` [Example 141.0] is 0.033 µM.
The figure for `COc1cccc(OC)c1-n1c(NS(=O)(=O)[C@@H](C)[C@@H](OC(C)C)c2ncc(C)cn2)nnc1C1CCC1` [Example 142.0] is 0.0051 µM.
The figure for `COc1cccc(OC)c1-n1c(NS(=O)(=O)[C@@H](C)[C@H](C)c2ncc(Cl)cn2)nnc1C1CCC1` [Example 143.0] is 0.0041 µM; for `COc1cccc(OC)c1-n1c(NS(=O)(=O)[C@@H](C)[C@H](OC)c2ncc(Cl)cn2)nnc1C1CC(F)(F)C1` [Example 147.0] it is 0.0064 µM; for `COc1cccc(OC)c1-n1c(NS(=O)(=O)[C@@H](C)[C@H](OC)c2ncc(Cl)cn2)nnc1[C@H]1C[C@H](C)C1` [Example 148.0, (1R,2S)-1-(5-chloropyrimidin-2-yl)-N-(4-(2,6-dimethoxyphenyl)-5-((1r,3S)-3-methylcyclobutyl)-4H-1,2,4-triazol-3-yl)-1-methoxypropane-2-sulfonamide and (1R,2S)-1-(5-chloropyrimidin-2-yl)-N-(4-(2,6-dimethoxyphenyl)-5-((1r,3R)-3-methylcyclobutyl)-4H-1,2,4-triazol-3-yl)-1-methoxypropane-2-sulfonamide] it is 0.0011 µM.
On to `COc1ncnc(OC)c1-n1c(NS(=O)(=O)[C@@H](C)[C@H](OC)c2ncc(Cl)cn2)nnc1C1CC2(CC2)C1` [Example 183.0, (1R,2S)-1-(5-chloro-2-pyrimidinyl)-N-(4-(4,6-dimethoxy-5-pyrimidinyl)-5-(spiro[2.3]hexan-5-yl)-4H-1,2,4-triazol-3-yl)-1-methoxy-2-propanesulfonamide], for which the concentration giving a half-maximal response (EC50) stood at 0.0014 µM.
Take `COc1ncnc(OC)c1-n1c(NS(=O)(=O)[C@@H](C)[C@H](OC)c2ncc(Cl)cn2)nnc1C1CC2(CCC2)C1` [Example 184.0, (1R,2S)-1-(5-chloro-2-pyrimidinyl)-N-(4-(4,6-dimethoxy-5-pyrimidinyl)-5-(spiro[3.3]heptan-2-yl)-4H-1,2,4-triazol-3-yl)-1-methoxy-2-propanesulfonamide]: the EC50 was found to be 0.0011 µM.
For the compound `COc1ncnc(OC)c1-n1c(NS(=O)(=O)[C@@H](C)[C@H](OC)c2ncc(Cl)cn2)nnc1[C@H]1C[C@H](C)C1` [Example 185.0, (1R,2S)-1-(5-chloro-2-pyrimidinyl)-N-(4-(4,6-dimethoxy-5-pyrimidinyl)-5-(trans-3-methylcyclobutyl)-4H-1,2,4-triazol-3-yl)-1-methoxy-2-propanesulfonamide], the EC50 was 0.0027 µM.
As for `COc1ncnc(OC)c1-n1c(NS(=O)(=O)[C@@H](C)[C@H](OC)c2ncc(Cl)cn2)nnc1[C@H]1C[C@@H](C)C1` [Example 186.0, (1R,2S)-1-(5-chloro-2-pyrimidinyl)-N-(4-(4,6-dimethoxy-5-pyrimidinyl)-5-(cis-3-methylcyclobutyl)-4H-1,2,4-triazol-3-yl)-1-methoxy-2-propanesulfonamide], the figure is 0.00089 µM; as for `COc1ncnc(OC)c1-n1c(NS(=O)(=O)[C@@H](C)[C@H](OC)c2ncc(C)cn2)nnc1C1CC2(CC2)C1` [Example 200.0], 0.0046 µM; as for `COc1ncnc(OC)c1-n1c(NS(=O)(=O)[C@@H](C)[C@H](OC)c2ncc(C)cn2)nnc1C1CC2(CC2)C1` [Example 201.0], 0.011 µM.
The figure for `COc1ncnc(OC)c1-n1c(NS(=O)(=O)[C@@H](C)[C@H](C)c2ncc(C)cn2)nnc1C1CC2(CC2)C1` [Example 202.0] is 0.0042 µM.
The figure for `COc1ncnc(OC)c1-n1c(NS(=O)(=O)[C@@H](C)[C@H](OC)c2ncc(Cl)cn2)nnc1C1CC(Cl)(Cl)C1` [Example 203.0, (1R,2S)-1-(5-chloropyrimidin-2-yl)-N-(5-(3,3-dichlorocyclobutyl)-4-(4,6-dimethoxypyrimidin-5-yl)-4H-1,2,4-triazol-3-yl)-1-methoxypropane-2-sulfonamide] is 0.01 µM; for `COc1cccc(OC)c1-n1c(NS(=O)(=O)[C@@H](C)[C@H](OCC(F)F)c2ncc(C)cn2)nnc1C1CCC1` [Example 209.0] it is 0.018 µM; for `COc1cccc(OC)c1-n1c(NS(=O)(=O)CCc2ncc(Cl)cn2)nnc1C1CCC1` [Example 210.0, 2-(5-chloro-2-pyrimidin-yl)-N-(5-cyclobutyl-4-(2,6-dimethoxyphenyl)-4H-1,2,4-triazol-3-yl)ethanesulfonamide] it is 0.015 µM.
Consider `CC(C)O[C@@H](c1ncc(Cl)cn1)[C@H](C)S(=O)(=O)Nc1nnc(C2CCC2)n1C1CCOCC1` [Example 211.0, (1S,2S)-1-(5-chloro-2-pyrimidinyl)-N-(5-cyclobutyl-4-(tetrahydro-2H-pyran-4-yl)-4H-1,2,4-triazol-3-yl)-1-(2-propanyloxy)-2-propanesulfonamide], for which the EC50 was 0.42 µM.
As for `COc1cccc(OC)c1-n1c(NS(=O)(=O)[C@@H](C)[C@H](OC)c2ncc(Cl)cn2)nnc1C12CC(C1)C2` [Example 217.0], the figure is 0.0074 µM; as for `COc1cccc(OC)c1-n1c(NS(=O)(=O)[C@@H](C)[C@@H](OC(C)C)c2ncc(C)cn2)nnc1[C@H]1C2CC1[C@@H]2O` [Example 228.0, (1S,2S)-N-(4-(2,6-dimethoxyphenyl)-5-(cis-4-hydroxybicyclo[1.1.1]pentan-2-yl)-4H-1,2,4-triazol-3-yl)-1-isopropoxy-1-(5-methylpyrimidin-2-yl)propane-2-sulfonamide and (1S,2S)-N-(4-(2,6-dimethoxyphenyl)-5-(trans-4-hydroxybicyclo[1.1.1]pentan-2-yl)-4H-1,2,4-triazol-3-yl)-1-isopropoxy-1-(5-methylpyrimidin-2-yl)propane-2-sulfonamide], 0.19 µM.
As for `COc1cccc(OC)c1-n1c(NS(=O)(=O)[C@@H](C)[C@H](OC)c2ncc(Cl)cn2)nnc1C1CC2(CCC2)C1` [Example 236.0, (1R,2S)-1-(5-chloro-2-pyrimidinyl)-N-(4-(2,6-dimethoxyphenyl)-5-(spiro[3.3]heptan-2-yl)-4H-1,2,4-triazol-3-yl)-1-methoxy-2-propanesulfonamide], the figure is 0.00099 µM; as for `COc1ncnc(OC)c1-n1c(NS(=O)(=O)[C@@H](C)[C@H](OC)c2ncc(Cl)cn2)nnc1C1CC(OC)(OC)C1` [Example 238.0, (1R,25)-1-(5-chloro-2-pyrimidinyl)-N-(5-(3,3-dimethoxycyclobutyl)-4-(4,6-dimethoxy-5-pyrimidinyl)-4H-1,2,4-triazol-3-yl)-1-methoxy-2-propanesulfonamide], 0.12 µM.
`COc1cccc(OC)c1-n1c(NS(=O)(=O)[C@@H](C)[C@H](OC)c2ncc(Cl)cn2)nnc1C1CC2(CC2)C1` [Example 239.0, (1R,2S)-1-(5-chloro-2-pyrimidinyl)-N-(4-(2,6-dimethoxyphenyl)-5-(spiro[2.3]hexan-5-yl)-4H-1,2,4-triazol-3-yl)-1-methoxy-2-propanesulfonamide]: the half-maximal effective concentration (EC50) was 0.00064 µM.
The figure for `COc1ncnc(OC)c1-n1c(NS(=O)(=O)[C@@H](C)[C@H](OC)c2ncc(Cl)cn2)nnc1C1CC2(COC2)C1` [Example 240.0, (1R,2S)-1-(5-chloro-2-pyrimidinyl)-N-(4-(4,6-dimethoxy-5-pyrimidinyl)-5-(2-oxaspiro[3.3]heptan-6-yl)-4H-1,2,4-triazol-3-yl)-1-methoxy-2-propanesulfonamide] is 0.071 µM.
For the compound `COc1cccc(OC)c1-n1c(NS(=O)(=O)[C@@H](C)[C@H](OC)c2ncc(Cl)cn2)nnc1C1CCCC1` [Example 241.0, (1R,25)-1-(5-chloro-2-pyrimidinyl)-N-(5-cyclopentyl-4-(2,6-dimethoxyphenyl)-4H-1,2,4-triazol-3-yl)-1-methoxy-2-propanesulfonamide], the EC50 was 0.0012 µM.
As for “(1R,2S)-1-(5-chloropyrimidin-2-yl)-N-(4-(2,6-dimethoxyphenyl)-5-((R)-2,2-dimethylcyclopropyl)-4H-1,2,4-triazol-3-yl)-1-methoxypropane-2-sulfonamide or (1R,2S)-1-(5-chloropyrimidin-2-yl)-N-(4-(2,6-dimethoxyphenyl)-5-((S)-2,2-dimethylcyclopropyl)-4H-1,2,4-triazol-3-yl)-1-methoxypropane-2-sulfonamide [Example 22.0]”, the figure is 0.00029 µM.
The figure for “(1R,2S)-1-(5-chloropyrimidin-2-yl)-N-(4-(2,6-dimethoxyphenyl)-5-((R)-3-oxocyclopentyl)-4H-1,2,4-triazol-3-yl)-1-methoxypropane-2-sulfonamide or (1R,2S)-1-(5-chloropyrimidin-2-yl)-N-(4-(2,6-dimethoxyphenyl)-5-((S)-3-oxocyclopentyl)-4H-1,2,4-triazol-3-yl)-1-methoxypropane-2-sulfonamide [Example 224.0]” is 0.038 µM; for “(1R,2S)-1-(5-chloropyrimidin-2-yl)-N-(4-(2,6-dimethoxyphenyl)-5-((R)-3-oxocyclopentyl)-4H-1,2,4-triazol-3-yl)-1-methoxypropane-2-sulfonamide or (1R,2S)-1-(5-chloropyrimidin-2-yl)-N-(4-(2,6-dimethoxyphenyl)-5-((S)-3-oxocyclopentyl)-4H-1,2,4-triazol-3-yl)-1-methoxypropane-2-sulfonamide [Example 225.0]” it is 0.16 µM.
